In patent US20170142962A1, “METHODS AND SOLUTIONS INCLUDING ADDITIVES AND STABILIZERS FOR KILLING OR DEACTIVATING SPORES” (EP Technologies LLC, priority 2015, published 2017):
Structures can show the parent of a compound that is named as a salt.

Key:
C. diff spores [1] = test: Example 1: direct DBD plasma treatment of EtOH, H2O2 or water solutions on spore-containing discs with soil; assay type: cell-based, Clostridium difficile; details: DBD 30 seconds, 35% EtOH, 70% EtOH, 3% H2O2
Method: In the following examples, various treatments were applied to measure the ability of plasma-activated liquids containing various additives to kill or deactivate spores from C. diff bacteria. Briefly, a volume of 10 μl of C. diff spores in sterile water (containing approximately 10^8 colony forming units (CFUs)/ml) was added onto a sterile stainless steel disc and left to dry for 30 minutes. The contaminated surfaces were then exposed to a treatment described below. After treatment, the killing or deactivation capacity of the treatment was measured by estimating the number of surviving CFUs. Estimation of surviving CFUs was determined by placing the disc in test tubes filled with a neutralizer. The test tubes were sonicated for 1 minute and vortexed for 15 seconds to fully remove spores from the surfaces. The neutralizer solution containing spores was diluted and plated on Brain Heart Infusion Agar supplemented with 0.1% Sodium Taurocholate (BHIT). The agar plates were incubated under anaerobic conditions for 36-48 hours at 37° C. CFUs were estimated based on colony counts on the agar plates following incubation. A direct plasma treatment (as shown in FIG. 1) with DBD was used for the testing. The direct DBD was created by an AC sinusoidal voltage power supply with a power scale at 15 (approximately 20 kV peak-to-peak) and a driving frequency of 20.5 kHz. […]

C. diff spores [2] = test: Example 2: direct DBD plasma treatment of differing EtOH concentrations on spore-containing discs with soil; assay type: cell-based, Clostridium difficile; details: 12 μl, DBD 30 seconds
Method: In the following examples, various treatments were applied to measure the ability of plasma-activated liquids containing various additives to kill or deactivate spores from C. diff bacteria. Briefly, a volume of 10 μl of C. diff spores in sterile water (containing approximately 10^8 colony forming units (CFUs)/ml) was added onto a sterile stainless steel disc and left to dry for 30 minutes. The contaminated surfaces were then exposed to a treatment described below. After treatment, the killing or deactivation capacity of the treatment was measured by estimating the number of surviving CFUs. Estimation of surviving CFUs was determined by placing the disc in test tubes filled with a neutralizer. The test tubes were sonicated for 1 minute and vortexed for 15 seconds to fully remove spores from the surfaces. The neutralizer solution containing spores was diluted and plated on Brain Heart Infusion Agar supplemented with 0.1% Sodium Taurocholate (BHIT). The agar plates were incubated under anaerobic conditions for 36-48 hours at 37° C. CFUs were estimated based on colony counts on the agar plates following incubation. A direct plasma treatment (as shown in FIG. 1) with DBD was used for the testing. […] The gap distance between the plasma reactor and the disc was 2 mm.

C. diff spores [3] = test: Example 11: plasma activated wipes used to wipe spore-containing surface; assay type: cell-based, Clostridium difficile; details: mechanical removal
Method: (§1) In the following examples, various treatments were applied to measure the ability of plasma-activated liquids containing various additives to kill or deactivate spores from C. diff bacteria. Briefly, a volume of 10 μl of C. diff spores in sterile water (containing approximately 10^8 colony forming units (CFUs)/ml) was added onto a sterile stainless steel disc and left to dry for 30 minutes. The contaminated surfaces were then exposed to a treatment described below. After treatment, the killing or deactivation capacity of the treatment was measured by estimating the number of surviving CFUs. Estimation of surviving CFUs was determined by placing the disc in test tubes filled with a neutralizer. The test tubes were sonicated for 1 minute and vortexed for 15 seconds to fully remove spores from the surfaces. The neutralizer solution containing spores was diluted and plated on Brain Heart Infusion Agar supplemented with 0.1% Sodium Taurocholate (BHIT). The agar plates were incubated under anaerobic conditions for 36-48 hours at 37° C. CFUs were estimated based on colony counts on the agar plates following incubation.

C. diff spores [4] = test: Example 3: direct DBD plasma treatment of H2O2 or NaNO2 solutions, spore inoculum in PBST; assay type: cell-based, Clostridium difficile; details: 1, 10, 100, 500 mM, 10 μl, DBD 20 seconds, two trials, NaNO2: other than at 10 mM
Method: as §1
A direct plasma treatment (as shown in FIG. 1) with DBD was used for the testing. […]

[5] = cited from earlier work
C. diff spores [6] = test: Example 4: direct DBD plasma treatment of acid solutions, spore inoculum in PBST with soil; assay type: cell-based, Clostridium difficile; details: 0.0001% to 10% acid solutions, 3 μl, DBD 20 seconds
Method: as §1
A direct plasma treatment (as shown in FIG. 1) with DBD was used for the testing. The direct DBD was created by a microsecond pulsed power supply which creates discrete voltage bursts at a repetition rate of 3.5 kHz which consist of decaying sinusoidal waveforms with a frequency of 32 kHz and a peak-to-peak voltage of approximately 20 kV. The gap distance between the plasma reactor and the disc was 2 mm. Spore inoculum for the stainless steel disc was prepared in 1×PBST with soil instead of sterile water. Citric acid, acetic acid, or HCl was added to water to produce 0.0001% to 10% acid solutions. 3 μl of each of these solutions was added to the spore-containing discs. After application, the discs were subjected to DBD treatment for 20 seconds.

[7] = cited from earlier work; remark: listed apart in the source

With CCO [EtOH, ethanol] the “kill or deactivation efficiency as additive in the water, versus water alone” value (C. diff spores [1]) was “substantially increased the kill or deactivation efficiency”, the “killing or deactivation efficiency with increased concentration” value (C. diff spores [2]) was “increasing killing or deactivation efficiency” and the “LR of wipe without plasma activation” value (C. diff spores [3]) was roughly 0.7 LR.
For OO [H2O2, hydrogen peroxide], the “kill or deactivation efficiency as additive in the water, versus water alone” value (C. diff spores [1]) is given as “substantially increased the kill or deactivation efficiency”, the “effect of increasing the concentration on killing or deactivation efficiency” value (C. diff spores [4]) is given as “increased the killing or deactivation efficiency” and the “OSHA permissible exposure limit” value ([5]; averaged over an 8-hour work shift) is given as 1 ppm. For the same compound, the “AIHA ERPG-2 maximum airborne concentration” value ([5]; exposure up to an hour without irreversible or serious health effects) was 50 ppm.
With Cl [HCl, hydrochloric acid] the “killing or deactivation efficiency relative to water alone” value (C. diff spores [6]) was “increased the killing or deactivation efficiency”.
With O=NO [NaNO2, sodium nitrite] the “effect of increasing the concentration on killing or deactivation efficiency” value (C. diff spores [4]) was “did not increase the killing or deactivation efficiency”.
With CC(=O)O [acetic acid] the “killing or deactivation efficiency relative to water alone” value (C. diff spores [6]) was “increased the killing or deactivation efficiency”.
For O=C(O)CC(O)(CC(=O)O)C(=O)O [citric acid], the “killing or deactivation efficiency relative to water alone” value (C. diff spores [6]) was “increased the killing or deactivation efficiency”.
In the case of O=NOO [peroxynitrite], the half-life [7] is listed as “around 1 second”.
